Assays:
Integrin alpha-V/beta-3 = Integrin alpha-V/beta-3 (Homo sapiens, UniProt P05106+P06756); assay: Inhibition of alphaVbeta3 integrin receptor expressed in human 293 cells; format: cell-based, HEK293
Integrin alpha-V/beta-6 [1] = target: T1, Integrin alpha-V/beta-6 (Homo sapiens, UniProt P06756+P18564); assay: Inhibition of alpha-V-beta-6 integrin receptor in human 293 cells; format: cell-based, HEK293
Integrin alpha-V/beta-6 [2] = target: T1, Integrin alpha-V/beta-6; assay: Inhibition of alpha-V-beta-6 integrin receptor in human HT29 cells; format: cell-based, HT-29
[3] = Bioavailability in mouse at 20 mg/kg, po; format: ADME, organism-based; conditions: in vivo
[4] = Half life in mouse at 20 mg/kg po or 10 mg/kg iv; format: ADME, organism-based; conditions: in vivo

T1 sequence (P06756 31-889 limits assumed): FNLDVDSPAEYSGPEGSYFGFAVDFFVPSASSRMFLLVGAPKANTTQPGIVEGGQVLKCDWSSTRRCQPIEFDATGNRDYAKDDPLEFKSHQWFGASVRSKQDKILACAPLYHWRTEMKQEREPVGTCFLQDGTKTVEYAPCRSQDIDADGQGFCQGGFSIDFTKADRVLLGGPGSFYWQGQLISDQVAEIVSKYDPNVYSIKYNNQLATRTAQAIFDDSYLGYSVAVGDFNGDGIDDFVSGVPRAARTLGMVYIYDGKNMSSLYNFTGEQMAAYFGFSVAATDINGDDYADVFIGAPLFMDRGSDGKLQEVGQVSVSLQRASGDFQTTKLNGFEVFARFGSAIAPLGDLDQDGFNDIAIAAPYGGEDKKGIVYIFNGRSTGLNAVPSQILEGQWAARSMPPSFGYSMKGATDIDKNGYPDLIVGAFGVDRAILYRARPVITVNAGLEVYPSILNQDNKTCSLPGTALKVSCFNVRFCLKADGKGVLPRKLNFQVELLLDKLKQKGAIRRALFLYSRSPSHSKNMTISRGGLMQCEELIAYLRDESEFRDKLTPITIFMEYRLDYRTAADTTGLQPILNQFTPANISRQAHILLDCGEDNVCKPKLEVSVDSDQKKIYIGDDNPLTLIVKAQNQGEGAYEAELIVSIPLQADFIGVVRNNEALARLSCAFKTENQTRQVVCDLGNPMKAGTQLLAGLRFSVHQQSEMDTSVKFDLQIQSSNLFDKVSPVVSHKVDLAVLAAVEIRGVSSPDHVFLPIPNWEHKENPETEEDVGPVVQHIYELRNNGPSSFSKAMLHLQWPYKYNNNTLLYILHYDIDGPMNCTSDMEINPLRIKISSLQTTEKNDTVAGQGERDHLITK
T1 sequence (P06756 891-1048 limits assumed): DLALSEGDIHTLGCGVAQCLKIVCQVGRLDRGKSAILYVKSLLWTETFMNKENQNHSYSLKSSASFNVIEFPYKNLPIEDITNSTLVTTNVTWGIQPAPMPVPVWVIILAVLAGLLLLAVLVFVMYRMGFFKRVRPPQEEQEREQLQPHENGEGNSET
T1 sequence (P18564 22-788 limits assumed): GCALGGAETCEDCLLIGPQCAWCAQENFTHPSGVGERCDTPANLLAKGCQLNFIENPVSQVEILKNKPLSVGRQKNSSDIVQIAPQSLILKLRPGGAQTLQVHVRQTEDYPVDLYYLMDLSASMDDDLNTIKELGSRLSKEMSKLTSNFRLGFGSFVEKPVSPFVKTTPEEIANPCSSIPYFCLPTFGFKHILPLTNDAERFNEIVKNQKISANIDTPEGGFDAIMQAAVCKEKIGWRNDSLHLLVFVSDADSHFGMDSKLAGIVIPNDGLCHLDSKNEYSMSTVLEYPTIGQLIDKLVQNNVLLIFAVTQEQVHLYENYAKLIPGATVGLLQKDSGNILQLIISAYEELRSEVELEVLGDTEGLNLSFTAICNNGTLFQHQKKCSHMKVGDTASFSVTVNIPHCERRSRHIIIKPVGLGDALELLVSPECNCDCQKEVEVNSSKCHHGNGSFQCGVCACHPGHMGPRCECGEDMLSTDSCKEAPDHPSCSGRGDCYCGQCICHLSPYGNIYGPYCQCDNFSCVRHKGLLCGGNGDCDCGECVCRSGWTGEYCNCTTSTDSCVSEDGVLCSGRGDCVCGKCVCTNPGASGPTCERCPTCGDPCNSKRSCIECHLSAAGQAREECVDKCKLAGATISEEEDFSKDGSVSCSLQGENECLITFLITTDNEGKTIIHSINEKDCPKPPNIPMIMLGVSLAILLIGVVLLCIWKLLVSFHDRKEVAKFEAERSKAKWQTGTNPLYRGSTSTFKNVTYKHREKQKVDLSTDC
Chain of Integrin alpha-V/beta-3 (P05106 27-788 limits assumed): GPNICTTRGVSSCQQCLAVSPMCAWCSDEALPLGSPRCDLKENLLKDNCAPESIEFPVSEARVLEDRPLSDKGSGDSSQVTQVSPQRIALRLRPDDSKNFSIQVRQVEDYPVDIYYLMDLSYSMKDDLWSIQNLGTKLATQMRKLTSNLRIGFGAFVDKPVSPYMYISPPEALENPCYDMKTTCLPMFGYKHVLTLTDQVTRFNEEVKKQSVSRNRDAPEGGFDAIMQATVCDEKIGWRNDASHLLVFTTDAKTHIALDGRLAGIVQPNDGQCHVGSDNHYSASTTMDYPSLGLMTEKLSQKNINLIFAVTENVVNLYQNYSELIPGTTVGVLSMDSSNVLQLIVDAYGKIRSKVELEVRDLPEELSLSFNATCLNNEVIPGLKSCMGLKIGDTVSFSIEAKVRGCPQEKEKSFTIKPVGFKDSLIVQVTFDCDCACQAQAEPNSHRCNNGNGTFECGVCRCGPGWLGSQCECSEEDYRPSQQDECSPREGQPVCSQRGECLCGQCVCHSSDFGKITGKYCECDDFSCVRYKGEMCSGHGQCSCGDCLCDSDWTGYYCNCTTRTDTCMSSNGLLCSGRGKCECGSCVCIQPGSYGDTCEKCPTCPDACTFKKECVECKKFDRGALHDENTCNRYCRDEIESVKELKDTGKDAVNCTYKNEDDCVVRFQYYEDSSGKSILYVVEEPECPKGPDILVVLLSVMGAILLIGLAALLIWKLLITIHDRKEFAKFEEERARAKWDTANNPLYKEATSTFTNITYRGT
Chain of Integrin alpha-V/beta-3 (P06756 31-889 limits assumed): as the sequence (P06756 31-889 limits assumed) above
Chain of Integrin alpha-V/beta-3 (P06756 891-1048 limits assumed): as the sequence (P06756 891-1048 limits assumed) above

Structure (SMILES)	IC50 (Integrin alpha-V/beta-3) [nM]	IC50 (Integrin alpha-V/beta-6 [1]) [nM]	IC50 (Integrin alpha-V/beta-6 [2]) [nM]	bioavailability [3] [%]	half-life [4] [h]
O=C(O)C[C@@H](NC(=O)CNC(=O)c1cc(O)cc(NC2=NCC(F)CN2)c1)c1cc(Cl)cc(I)c1O (some centres undefined)	3	164			
Nc1cc(NC2=NCC(O)CN2)cc(C(=O)NCC(=O)N[C@H](CC(=O)O)c2cc(Br)cc(Cl)c2O)c1 (some centres undefined)	33		216		
O=C(O)C[C@@H](NC(=O)CNC(=O)c1cncc(NC2=NCC(F)CN2)c1)c1cc(Cl)cc(Br)c1O (some centres undefined)	0.7		1830		
Cc1cc(C)c(O)c([C@H](CC(=O)O)NC(=O)CNC(=O)c2cc(O)cc(NC3=NCC(O)CN3)c2)c1 (some centres undefined)	1				
Nc1cc(NC2=NCC(O)CN2)cc(C(=O)NCC(=O)N[C@H](CC(=O)O)c2cc(Cl)cc(Br)c2O)c1 (some centres undefined)	22		8620		
O=C(O)C[C@@H](NC(=O)CNC(=O)c1cccc(NC2=NCC(O)CN2)c1)c1cc(Br)cc(Cl)c1O (some centres undefined)	8		48		
Cc1cc(C)c(O)c([C@@H](CC(=O)O)NC(=O)CNC(=O)c2cc(O)cc(NC3=NCC(O)CN3)c2)c1 (some centres undefined)	54		118		
O=C(O)C[C@@H](NC(=O)CNC(=O)c1cccc(NC2=NCC(O)CN2)c1)c1cc(Cl)cc(Br)c1O (some centres undefined)	5		3530		
O=C(O)C[C@H](NC(=O)CNC(=O)c1cncc(NC2=NCC(F)CN2)c1)c1cc(Cl)cc(Br)c1O (some centres undefined)	0.4				
O=C(O)C[C@@H](NC(=O)CNC(=O)c1cncc(NC2=NCC(O)CN2)c1)c1cc(Cl)cc(I)c1O (some centres undefined)	1	622			
Cc1cc(C)cc([C@@H](CC(=O)O)NC(=O)CNC(=O)c2cc(O)cc(NC3=NCC(F)CN3)c2)c1 (some centres undefined)	56		49		
O=C(O)C[C@@H](NC(=O)CNC(=O)c1cncc(NC2=NCC(O)CN2)c1)c1cc(Cl)cc(Br)c1O (some centres undefined)	1	615			
O=C(O)C[C@H](NC(=O)CNC(=O)c1cccc(NC2=NCC(F)CN2)c1)c1cc(Cl)cc(Br)c1O (some centres undefined)	0.2				
O=C(O)C[C@H](NC(=O)CNC(=O)c1cccc(NC2=NCC(O)CN2)c1)c1cc(Cl)cc(Cl)c1O (some centres undefined)	0.3				
Cc1cc(Cl)cc([C@@H](CC(=O)O)NC(=O)CNC(=O)c2cc(O)cc(NC3=NCC(O)CN3)c2)c1O (some centres undefined)	18		688		
O=C(O)C[C@H](NC(=O)CNC(=O)c1cc(O)cc(NC2=NCCCN2)c1)c1cc(Cl)cc(Cl)c1O	0.9				
O=C(O)C[C@@H](NC(=O)CNC(=O)c1cc(O)cc(NC2=NCC(F)CN2)c1)c1cc(Cl)cc(Cl)c1 (some centres undefined)	11		40		
O=C(O)C[C@H](NC(=O)CNC(=O)c1cc(O)cc(NC2=NCC(O)CN2)c1)c1cc(Cl)cc(I)c1O (some centres undefined)	6.4				

Structure (SMILES)	IC50 (Integrin alpha-V/beta-3) [nM]	IC50 (Integrin alpha-V/beta-6 [1]) [nM]	IC50 (Integrin alpha-V/beta-6 [2]) [nM]	bioavailability [3] [%]	half-life [4] [h]
O=C(O)C[C@@H](NC(=O)CNC(=O)c1cccc(NC2=NCCCN2)c1)c1cc(Br)cc(Cl)c1O	8		88		
O=C(O)C[C@@H](NC(=O)CNC(=O)c1cccc(NC2=NCC(O)CN2)c1)c1cc(Br)cc(Br)c1O (some centres undefined)	10		25		
O=C(O)C[C@H](NC(=O)CNC(=O)c1cncc(NC2=NCC(O)CN2)c1)c1cc(Br)cc(Cl)c1O (some centres undefined)	0.3				
Cc1cc(C)c(O)c([C@@H](CC(=O)O)NC(=O)CNC(=O)c2cc(N)cc(NC3=NCC(F)CN3)c2)c1 (some centres undefined)	10		65		
O=C(O)C[C@H](NC(=O)CNC(=O)c1cc(O)cc(NC2=NCC(O)CN2)c1)c1cc(Cl)cc(Br)c1O (some centres undefined)	2.6				
O=C(O)C[C@@H](NC(=O)CNC(=O)c1cc(O)cc(NC2=NCC(O)CN2)c1)c1cc(Br)cc(Br)c1O (some centres undefined)	21		96		
O=C(O)C[C@@H](NC(=O)CNC(=O)c1cc(O)cc(NC2=NCC(F)CN2)c1)c1cc(Br)cc(Cl)c1O (some centres undefined)	3		71		
O=C(O)C[C@@H](NC(=O)CNC(=O)c1cc(O)cc(NC2=NCC(F)CN2)c1)c1cc(Br)cc(I)c1 (some centres undefined)	13		11		
O=C(O)C[C@H](NC(=O)CNC(=O)c1cncc(N=C2NCC(O)CN2)c1)c1cc(Cl)cc(Br)c1O (some centres undefined)	0.4				
O=C(O)C[C@@H](NC(=O)CNC(=O)c1cccc(NC2=NCC(O)CN2)c1)c1cc(Cl)cc(Cl)c1O (some centres undefined)	0.7	20			
O=C(O)C[C@H](NC(=O)CNC(=O)c1cc(O)cc(N=C2NCC(O)CN2)c1)c1cc(Br)cc(Cl)c1O (some centres undefined)	2.7				
O=C(O)C[C@@H](NC(=O)CNC(=O)c1cccc(NC2=NCC(O)CN2)c1)c1cc(Cl)cc(I)c1O (some centres undefined)	1		11500		
O=C(O)C[C@H](NC(=O)CNC(=O)c1cccc(NC2=NCC(O)CN2)c1)c1cc(Cl)cc(Br)c1O (some centres undefined)	0.6				
O=C(O)C[C@@H](NC(=O)CNC(=O)c1cc(O)cc(NC2=NCC(F)CN2)c1)c1cc(Br)cc(Br)c1O (some centres undefined)	3		3420		
O=C(O)C[C@@H](NC(=O)CNC(=O)c1cccc(N=C2NCC(F)CN2)c1)c1cc(Cl)cc(Br)c1O (some centres undefined)	1		1420		
O=C(O)C[C@H](NC(=O)CNC(=O)c1cccc(N=C2NCC(O)CN2)c1)c1cc(Cl)cc(I)c1O (some centres undefined)	1.6				
O=C(O)C[C@@H](NC(=O)CNC(=O)c1cc(O)cc(N=C2NCCCN2)c1)c1cc(Br)cc(Br)c1O	20		204		

Further compounds by falling IC50 (Integrin alpha-V/beta-3), results first:

IC50 (Integrin alpha-V/beta-3) [nM]	IC50 (Integrin alpha-V/beta-6 [1]) [nM]	IC50 (Integrin alpha-V/beta-6 [2]) [nM]	bioavailability [3] [%]	half-life [4] [h]	Structure (SMILES)
10		2740			O=C(O)C[C@@H](NC(=O)CNC(=O)c1cc(O)cc(NC2=NCCCN2)c1)c1cc(Cl)cc(Br)c1O
10		151			O=C(O)C[C@@H](NC(=O)CNC(=O)c1cc(O)cc(NC2=NCCCN2)c1)c1cc(Br)cc(Cl)c1O
9	1780				O=C(O)C[C@@H](NC(=O)CNC(=O)c1cc(O)cc(NC2=NCCCN2)c1)c1cc(Cl)cc(I)c1O
7		10000			O=C(O)C[C@@H](NC(=O)CNC(=O)c1cccc(NC2=NCCCN2)c1)c1cc(Cl)cc(I)c1O
7		588			O=C(O)C[C@@H](NC(=O)CNC(=O)c1cc(O)cc(NC2=NCC(O)CN2)c1)c1cc(Br)cc(Cl)c1O (some centres undefined)
7		2790			Nc1cc(NC2=NCC(O)CN2)cc(C(=O)NCC(=O)N[C@H](CC(=O)O)c2cc(Br)cc(Br)c2O)c1 (some centres undefined)
5		7260			O=C(O)C[C@@H](NC(=O)CNC(=O)c1cc(O)cc(NC2=NCC(F)(F)CN2)c1)c1cc(Cl)cc(Br)c1O
5		6540			O=C(O)C[C@@H](NC(=O)CNC(=O)c1cccc(NC2=NCCCN2)c1)c1cc(Cl)cc(Br)c1O
5		20			O=C(O)C[C@@H](NC(=O)CNC(=O)c1cc(O)cc(NC2=NCC(F)CN2)c1)c1cc(Br)cc(Br)c1 (some centres undefined)
5					O=C(O)C[C@H](NC(=O)CNC(=O)c1cc(O)cc(N=C2NCC(F)(F)CN2)c1)c1cc(Cl)cc(Br)c1O
5		57			O=C(O)C[C@@H](NC(=O)CNC(=O)c1cc(O)cc(NC2=NCC(F)CN2)c1)c1cc(Cl)cc(Br)c1 (some centres undefined)
4		3210			O=C(O)C[C@@H](NC(=O)CNC(=O)c1cccc(NC2=NCCCN2)c1)c1cc(Br)cc(Br)c1O
4		24			O=C(O)C[C@@H](NC(=O)CNC(=O)c1cccc(NC2=NCCCN2)c1)c1cc(Cl)cc(Cl)c1O
3		631			O=C(O)C[C@@H](NC(=O)CNC(=O)c1cc(O)cc(NC2=NCC(O)CN2)c1)c1cc(Cl)cc(I)c1O (some centres undefined)
3	64				O=C(O)C[C@@H](NC(=O)CNC(=O)c1cc(O)cc(NC2=NCC(O)CN2)c1)c1cc(Cl)cc(Cl)c1O (some centres undefined)
3		3440			Nc1cc(NC2=NCC(F)CN2)cc(C(=O)NCC(=O)N[C@H](CC(=O)O)c2cc(Cl)cc(Br)c2O)c1 (some centres undefined)
3	52				O=C(O)C[C@@H](NC(=O)CNC(=O)c1cc(O)cc(NC2=NCC(O)CN2)c1)c1cc(Cl)cc(Br)c1O (some centres undefined)
3		3000			O=C(O)C[C@@H](NC(=O)CNC(=O)c1cc(O)cc(NC2=NCCCN2)c1)c1cc(Cl)cc(Cl)c1O
2		1760			O=C(O)C[C@@H](NC(=O)CNC(=O)c1cncc(NC2=NCC(O)CN2)c1)c1cc(Br)cc(Br)c1O (some centres undefined)
2		25			O=C(O)C[C@@H](NC(=O)CNC(=O)c1cccc(NC2=NCC(F)CN2)c1)c1cc(Br)cc(Cl)c1O (some centres undefined)
2					O=C(O)C[C@H](NC(=O)CNC(=O)c1cc(O)cc(NC2=NCCCN2)c1)c1cc(Cl)cc(Br)c1O
2					O=C(O)C[C@H](NC(=O)CNC(=O)c1cccc(NC2=NCCCN2)c1)c1cc(Cl)cc(Br)c1O
1		14			O=C(O)C[C@@H](NC(=O)CNC(=O)c1cncc(NC2=NCC(F)CN2)c1)c1cc(Cl)cc(Cl)c1O (some centres undefined)
1		42			O=C(O)C[C@@H](NC(=O)CNC(=O)c1cc(O)cc(NC2=NCC(F)CN2)c1)c1cc(Cl)cc(Cl)c1O (some centres undefined)
1		16			O=C(O)C[C@@H](NC(=O)CNC(=O)c1cccc(N=C2NCC(F)CN2)c1)c1cc(Cl)cc(Cl)c1O (some centres undefined)
1		22800			O=C(O)C[C@@H](NC(=O)CNC(=O)c1cncc(NC2=NCC(O)CN2)c1)c1cc(Br)cc(Cl)c1O (some centres undefined)
0.9					O=C(O)C[C@H](NC(=O)CNC(=O)c1cc(O)cc(N=C2NCC(O)CN2)c1)c1cc(Cl)cc(Cl)c1O (some centres undefined)
0.6			13.6	5.1	O=C(O)C[C@H](NC(=O)CNC(=O)c1cc(O)cc(N=C2NCC(F)CN2)c1)c1cc(Cl)cc(Br)c1O (some centres undefined)
0.3		12300			Nc1cc(NC2=NCC(O)CN2)cc(C(=O)NCC(=O)N[C@H](CC(=O)O)c2cc(Cl)cc(I)c2O)c1 (some centres undefined)
0.2					Cc1cc(Cl)cc([C@H](CC(=O)O)NC(=O)CNC(=O)c2cc(O)cc(NC3=NCC(O)CN3)c2)c1O (some centres undefined)
